Measurements as given in article PMC9130998, “Paclitaxel binds and activates C5aR1: A new potential therapeutic target for the prevention of chemotherapy-induced peripheral neuropathy and hypersensitivity reactions” (Cell Death & Disease, 2022).

Target: T1, complement component 5a receptor 1 (C5aR1) (Homo sapiens, UniProt P21730)
T1 construct: recombinant human C5aR1 with a C-terminal c-Myc tag
T1 sequence (P21730 1-350): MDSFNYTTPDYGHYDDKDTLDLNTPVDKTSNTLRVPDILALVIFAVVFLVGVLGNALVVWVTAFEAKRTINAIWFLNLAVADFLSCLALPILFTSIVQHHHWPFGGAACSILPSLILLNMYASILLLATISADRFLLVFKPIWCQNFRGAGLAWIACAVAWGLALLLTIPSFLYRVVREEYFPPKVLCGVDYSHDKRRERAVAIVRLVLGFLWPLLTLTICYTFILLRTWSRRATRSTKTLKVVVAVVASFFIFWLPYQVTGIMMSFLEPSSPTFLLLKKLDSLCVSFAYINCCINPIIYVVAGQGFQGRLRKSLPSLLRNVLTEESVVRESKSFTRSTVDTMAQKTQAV
Assay: SPR (BIAcore X100) on immobilized receptor, dose-dependent
Type: binding

SMILES: CC(=O)O[C@@]12CO[C@@H]1C[C@H](O)[C@@]1(C)C(=O)[C@H](O)C3=C(C)[C@@H](OC(=O)[C@H](O)[C@@H](NC(=O)OC(C)(C)C)c4ccccc4)C[C@@](O)([C@@H](OC(=O)c4ccccc4)[C@H]21)C3(C)C [docetaxel]
- SPR (BIAcore X100) on immobilized receptor, dose-dependent: similarly to paclitaxel, also docetaxel can bind C5aR1 receptor in a dose dependent way (Fig. S2A–D)
